According to patent publication US10525071B2, “Compositions containing PUFA and methods of use thereof” (MASSACHUSETS INSTITUE OF TECHNOLOGY, priority 2005, dated 2020):

Experiments:
brain phospholipids = assay: Brain phospholipid levels after UMP diet and/or PUFA gavage; type: in vivo, gerbil; conditions: for brain phospholipid levels: 3 weeks, summary of Table 6; for increase in brain total phospholipids over control: DHA 300 mg/kg/day gavage, UMP 0.5% of chow
Protocol: (§1) Cells were homogenized in 100 volumes of ice-cold deionized water using a tissue degrader (Polytron PT 10-35, Kinematica A G, Switzerland); 1 ml of aliquots were then mixed with 3 ml of chloroform+methanol mixture (2:1 v/v) and vortexed vigorously for 30 seconds. After cooling for 1 h on ice, the mixture was mixed sequentially with 3 ml of chloroform+methanol mixture (2:1 v/v) and 1 ml of ice-cold deionized water. The mixture was vortexed vigorously and allowed to stand overnight in the cold room (18 h). The organic (lower) and aqueous (upper) phases of the mixtures were separated by centrifugation (10 min at 4° C.; 1000 g). An aliquot (2 ml) of the upper phase was used for determination of CDP-Choline (see below), and 0.1-0.4 ml aliquots of the lower phase were dried under vacuum for phospholipid analysis. Residues of 0.1 ml aliquots of the lower phase were assayed for total phospholipid content by measuring phosphorus. Residues of 0.4 ml aliquots of the lower phase were reconstituted in 40 μl methanol and subjected to thin-layer chromatography using silica G plates (Adsorbosil Plus-1®, Alltech), and a system consisting of chloroform/ethanol/triethylamine/water (30:34:30:8) as the mobile phase. Phospholipid standards were used to identify the corresponding bands under UV light after the plates were sprayed with 0.1% diphenylhexatriene in petroleum ether. Bands for individual phospholipid classes (PC, PE, SM, PS and PI) were scraped off the plates and extracted into 1 ml of methanol; dried under vacuum; and assayed for phosphorus content. Total phosphorus was determined by comparison with standard curves by using KH2PO4 run with each assay. To each sample was added 0.5 ml of 4.5% HclO4/27% H2SO4 and tubes were heated at 180° C. for 3 h. After cooling to room temperature, 5 ml of the color reagent (a 10:1 dilution of solutions containing 2.5 mg/ml ammonium molybdate, 8.2 mg/ml sodium acetate and 100 mg/ml ascorbic acid respectively) was added and the tubes were incubated for 2 h, 37° C. Absorbance was measured spectrophotometrically at 820 nm. Phospholipid mass was determined by multiplying the phosphorus content by 25.
Control standard diet (Table 4) consisted of Teklad Global 16% protein rodent diet (Harlan Teklad, Madison, Wis.), which contained 0.1% choline chloride (CC), corresponding to a daily dose of 50 mg/kg/day. UMP was provided as 0.5% UMP.2Na^+ weight/weight, added to the control diet, also prepared by Harlan Teklad, corresponding to 240 mg/kg/day UMP. DHA was administered as 300 mg/kg/day in 200 microliter (mcL)/day 5% Arabic Gum solution, while groups not receiving DHA were administered vehicle (5% Arabic Gum) alone. DHA was provided by Nu-Chek Prep (Elysian, Minn.) and UMP by Numico (Wagenigen, NL).
Gerbils were anesthetized with ketamine and xylazine (80 and 10 mg/kg bwt, i.p.) and sacrificed by immersing the head into liquid nitrogen for 2 min, followed by decapitation. Brains were immediately and quickly (30 seconds) removed using a bone rongeur and stored at −80° C.
Frozen brain hemispheres were weighed and homogenized in 100 volumes of ice-cold deionized water using a tissue degrader (Polytron PT 10-35, Kinematica A G, Switzerland), then analyzed as described in Example 1.
Protein in whole brain homogenate sample was measured for using bicinchoninic acid reagent (Perkin Elmer, Norwalk, Conn., USA). DNA was measured by measuring 460 nm emission of samples on a fluorometer in the presence of bisbenzimidizole, a fluorescent dye known as Hoechst H 33258 (American Hoechst Corporation), which has an excitation maximum at 356 nm and an emission maximum of 458 when bound to DNA.
Adult gerbils were administered control standard diet (Table 4) with our without 0.5% UMP and/or 300 mg/kg/day DHA, EPA, or AA. Groups not receiving DHA were administered vehicle (5% Arabic Gum) alone.

SHSY-5Y cells = assay: 14C-choline incorporation into phospholipids in SHSY-5Y cells; type: cell-based, human; conditions: for phospholipid synthesis: 18 hr with 10 μM fatty acid, FIG. 3A
Protocol: as §1
SHSY-5Y cells were grown to near confluency in DMEM+10% FBS in 35 mm dishes. Cells were incubated for 18 hr in serum-free DMEM+1% FBS containing 30 μM choline+/−10 μM of DHA, arachidonic acid, or palmitic acid. Cells were then labeled, and labeled phospholipids were quantified as described for Example 1.
DHA was dissolved in ethanol to a […] concentration and frozen in 10 microliter aliquots at −80° C. For each experiment, one aliquot was diluted in ethanol to 10 micromolar; the volume giving the desired final solution in incubation medium was mixed with an equal volume of BSA solution (1 gm/ml).

brain CDP-choline = assay: Brain CDP-choline and CDP-ethanolamine levels (HPLC); type: in vivo, gerbil; conditions: 28 days; for brain CDP-choline levels: FIG. 5A; for brain CDP-ethanolamine levels: FIG. 5B
Protocol: FIG. 5. Effects of DHA on brain CDP-choline levels (A) and CDP-ethanolamine levels (B). Groups of 8 gerbils received either a control or a UMP-containing diet, and, by gavage, DHA (in a vehicle of 5% gum Arabic solution) or 5% gum Arabic solution alone for 28 days. On the 29th day brains were harvested and assayed for CDP-choline. Data are presented as means±SEM. Statistical analysis was performed using one- or two-way ANOVA followed by Tukey test. a: P<0.05 when compared with the values for control diet plus vehicle group; b: P<0.05 when compared with values for UMP diet plus vehicle group.
Aliquots (2 ml) of the upper (aqueous) phase were dried under a vacuum, reconstituted, and injected into an HPLC. The dried samples were reconstituted in 100-200 μl water and were analyzed by HPLC on an anion exchange column (Alltech Hypersil APS-2, […], 250×4.6 mm). CDP-choline was eluted with a linear gradient of buffers A (H3PO4, 1.75 mM, pH 2.9) and B (NaH2PO2, 500 mM, pH 4.5) from 0 to 100% B over period of 30 min. With this system, CDP-choline was resolved from closely co-eluting substances such as UMP in an isocratic system over a period of 40 min. The retention time for CDP-choline was 9.5 min. The column was washed with buffer B at the end of each experiment and every several days to remove retained nucleotides. Individual nucleotide peaks were detected by UV absorption at 280 nm and were identified by comparison with the positions of authentic standards, as well as by the addition of nucleotide standards to samples.

PC-12 cells = assay: 14C-choline incorporation into phospholipids in PC-12 cells; type: cell-based; conditions: for Phosphatidylcholine (PC) synthesis (incorporation of 14C label into PC): 18 hr pre-incubation with 5 μM fatty acid, FIG. 1
Protocol: PC-12 cells were maintained in Dulbecco's modified Eagle's medium (DMEM)+10% fetal bovine serum (FBS). For experiments, cells were grown in quintuplicate collagen-coated 35 millimeter (mm) dishes. Cells were incubated for 18 hours (hr) in serum-free DMEM containing 28 μM choline+/−5 micromolar (μM) of DHA, oleic acid, or palmitic acid. Cells were then labeled for 2.5 hr with 0.5 microcurie (μCi)/ml ^14C-choline in serum-free DMEM containing 10-micromolar (μM) choline.
as §1, with “To each sample was added 0.5 ml of 4.5% HclO4/27% H2SO4 and tubes were heated at 180° C. for 3 h. After cooling to room temperature, 5 ml of the color reagent (a 10:1 dilution of solutions containing 2.5 mg/ml ammonium molybdate, 8.2 mg/ml sodium acetate and 100 mg/ml ascorbic acid respectively) was added and the tubes were incubated for 2 h, 37° C.” left out
In order to assess the effect of omega-3 fatty acids on phospholipid synthesis, PC-12 cells were incubated with ^14C-labeled choline, following an 18-hour pre-incubation with or without DHA. Incorporation of label into phospholipids was then measured. […]
To further characterize the stimulation of phospholipid synthesis by omega-3 fatty acids, PC-12 cells were pre-treated with different doses of DHA and exposed to labeled choline as described in Example 1, then incorporation of ^14C-label into phospholipids was measured. […]

CCC=CCC=CCC=CCC=CCC=CCC=CCCC(=O)O [DHA, 4,7,10,13,16,19-docosahexaenoic acid]
brain phospholipid, pmol phospholipid per milligrams (mg) protein (brain phospholipids; FIG. 4A, gerbils, 4 weeks, ANOVA vs control): statistically significant effect
brain phospholipid levels (brain phospholipids; gerbils): increased
increase in brain total phospholipids over control (brain phospholipids; gerbils, 4 weeks): 12%
increase in brain levels of PC (brain phospholipids; vs control, Table 5A): 22%
increase in brain levels of PE (brain phospholipids; vs control, Table 5A): 20%
increase in brain levels of PI (brain phospholipids; vs control, Table 5A): 52%
increase in brain levels of sphingomyelin (brain phospholipids; vs control, Table 5A): 24%
phospholipid synthesis (SHSY-5Y cells): not
brain CDP-choline levels (brain CDP-choline): decreased
brain CDP-ethanolamine levels (brain CDP-choline): decreased
Phosphatidylcholine (PC) synthesis (incorporation of 14C label into PC) (PC-12 cells): significantly increased
synthesis of phospholipids (incorporation of 14C-label) (PC-12 cells; different doses of DHA, dose-dependent, FIG. 2): increased

CCC=CCC=CCC=CCC=CCC=CCCCC(=O)O [EPA, 5,8,11,14,17-eicosapentaenoic acid]
brain phospholipid levels (brain phospholipids; gerbils): increased

O=c1ccn([C@@H]2O[C@H](COP(=O)(O)O)[C@@H](O)[C@H]2O)c(=O)[nH]1 [UMP, uridine monophosphate]
effects on brain phospholipids (brain phospholipids; After 1 week of treatment): no significant effects
PtdEtn (brain phospholipids; Table 5 part A, gerbil brain): 84 ± 8 nmol/mg prt
increases in all 5 of the phospholipids (brain phospholipids; Treatment for 3 weeks, Table 5B): smaller but still significant increases
increase in brain total phospholipids over control (brain phospholipids; gerbils, 4 weeks): 5%
increase in brain levels of PC (brain phospholipids; vs control, Table 5A): 13%
increase in brain levels of PE (brain phospholipids; vs control, Table 5A): 29%
increase in brain levels of PI (brain phospholipids; vs control, Table 5A): 48%
brain CDP-choline levels (brain CDP-choline): decreased
brain CDP-ethanolamine levels (brain CDP-choline): decreased

CCCCCC=CCC=CCC=CCC=CCCCC(=O)O [arachidonic acid, 5,8,11,14-eicosatetraenoic acid]
brain phospholipid levels (brain phospholipids; gerbils): increased
phospholipid synthesis (SHSY-5Y cells): enhanced
synthesis of total phospholipids, PC, and phosphatidylethanolamine (SHSY-5Y cells; range of dosages, dose-dependent, FIG. 3B): increased

CCCCCCCC/C=C\CCCCCCCC(=O)O [oleic acid, reference compound]
Phosphatidylcholine (PC) synthesis (incorporation of 14C label into PC) (PC-12 cells): not

CCCCCCCCCCCCCCCC(=O)O [palmitic acid, reference compound]
phospholipid synthesis (SHSY-5Y cells): not
Phosphatidylcholine (PC) synthesis (incorporation of 14C label into PC) (PC-12 cells): not
